Data taken from article PMC7910576, “Marine furanocembranoids-inspired macrocycles enabled by Pd-catalyzed unactivated C(sp^3)-H olefination mediated by donor/donor carbenes” (Nature Communications, 2021).

Assays:
[1] = tested on: IL-6; assay: LPS-induced IL-6 production in RAW264.7 macrophages (ELISA); assay type: cell-based, mouse; settings: for IC50: Mus musculus, RAW264.7 macrophages, LPS 5 μg/mL, 24 h; for potency of inhibitory activity on IL-6 relative to Dexamethasone: compared with Dexamethasone
Procedure: (§1) RAW264.7 cell, a murine macrophage cell line, was purchased from American Type Culture Collection (ATCC, Manassas, VA, USA). Cells were grown in Dulbecco’s Modified Eagle Media (DMEM) containing 10% fetal bovine serum, 2 mM L-glutamine, 100 U/mL penicillin, and 100 μg/mL streptomycin and were maintained at 37 °C in a humidified incubator of 5% CO2.
(§2) RAW264.7 cells (1 × 10^5/well) were seeded into 96-well plates in triplicate and were treated with DMEM media only or 5 μg/mL of LPS or with indicated concentrations of compounds for 24 h. Supernatants were collected and then quantified with the mouse TNF-α, IL-6, and IL-1β ELISA kits following the manufacturer’s instructions.

[2] = Cell viability assay (MTT) in RAW264.7 cells; assay type: cell-based, mouse; settings: mouse, RAW264.7 macrophage cells; RAW264.7 cells, 24 h, MTT; read-out: Cytotoxicity CC50
Procedure: as §1
(§3) RAW264.7 cells (1 × 10^5/well) were seeded into 96-well plates in triplicate and were treated with DMEM media or indicated concentrations of compounds for 24 h. MTT solution was added to each well at a final concentration of 0.5 mg/ml and incubated for 4 h before the end of the culture. The quantity of formazan is measured at 570 nm with a microplate reader (Molecular Devices, Sunnyvale, CA, USA) and the cell viability was calculated.

[3] = tested on: TNF-α; assay: LPS-induced TNF-α production in RAW264.7 macrophages (ELISA); assay type: cell-based; settings: Mus musculus, LPS 5 μg/mL, 24 h
Procedure: as §1, §2

[4] = tested on: IL-1β; assay: LPS-induced IL-1β production in RAW264.7 macrophages (ELISA); assay type: cell-based; settings: Mus musculus, LPS 5 μg/mL, 24 h
Procedure: as §1, §2

[5] = tested on: RAW264.7 cells; assay: Cell viability assay (MTT) in RAW264.7 cells; assay type: cell-based, mouse; settings: at the indicated concentrations, compared to Dexamethasone
Procedure: as §1, §3

[6] = tested on: NF-κB signaling pathway; assay: Western blotting of LPS-induced NF-κB signaling pathway activation in RAW264.7 cells; assay type: cell-based, mouse; settings: Western blot
Procedure: as §1
RAW264.7 cells (6 × 10^5/well) were seeded into 24-well plates and treated with DMEM media only or 5 μg/mL of LPS or with indicated concentrations of compounds for 24 h. Cells were lysed in sodium dodecyl sulfate (SDS) sample buffer containing protease inhibitor cocktail (Roche Life Science, Mannheim, Germany). The resulted proteins were resolved by SDS-polyacrylamide gel electrophoresis and then subjected to the following antibodies: anti-mouse IKK-α, anti-mouse phospho-IKK-α, anti-mouse IκB-α, anti-mouse NF-κB p65, anti-mouse phospho-NF-κB p65 antibodies (Cell Signaling Technology, Beverly, MA), and HRP-conjugated mouse anti-GAPDH (Kangcheng, Shanghai, China). Signals were detected with an HRP-conjugated anti-rabbit IgG (Bio-Rad, Richmond, CA, USA) using an ECL system (Amersham Biosciences, Buckinghamshire, UK). The uncropped and unprocessed scans of indicated blots were supplied as Supplementary Figure 99 in the Supplementary Information.

IC50 [1] | IC50 [3] | IC50 [4] | Compound | CC50 at 24 h [2] | potency of inhibitory activity on IL-6 relative to Dexamethasone [1] | cytotoxicity (in words) [5] | degradation of IκB-α [6] | phosphorylation of IKK-α [6] | phosphorylation of NF-κB [6]
29.5 µM | 10 µM | 8.61 µM | CSCC[C@@H]1NC(=O)CCCCCCCCCCCNC(=O)c2cc(oc2C)/C(C(C)(C)C)=C\C(C)(C)c2ccc(cc2)NC(=O)[C@H](Cc2ccccc2)NC1=O [6f] | 214 µM |  |  |  |  | 
80.8 µM | > 250 µM | 3.05 µM | Cc1oc2cc1C(=O)NCCCCCCCCCCCC(=O)N[C@@H](C(C)C)C(=O)N[C@@H](Cc1ccccc1)C(=O)Nc1ccc(cc1)C(C)(C)/C=C\2C(C)(C)C [6e] | > 250 µM |  |  |  |  | 
196 µM | 107 µM | 17.6 µM | Cc1oc2cc1C(=O)NCCCCCCCCCCCC(=O)N1CCC[C@H]1C(=O)Nc1ccc(cc1)C(C)(C)/C=C\2C(C)(C)C [6d] | 27.7 µM |  |  |  |  | 
0.95 µM | 56.4 µM | 0.0041 µM | Cc1oc2cc1C(=O)N[C@@H](C(C)C)C(=O)NCCCCCCCCCCCC(=O)Nc1ccc(cc1)C(C)(C)/C=C\2C(C)(C)C [6h] | 56.4 µM | approximately ten times more potent | did not show obvious cytotoxicity |  |  | 
10.5 µM | 11.5 µM | 4.38 µM | Cc1oc2cc1C(=O)NCCCCCCCCCCCC(=O)N[C@@H](C(C)C)C(=O)Nc1ccc(cc1)C(C)(C)/C=C\2C(C)(C)C [6c] | 154 µM |  |  |  |  | 
7.28 µM | 2.15 µM | 3.4 µM | Cc1oc2cc1C(=O)NCCCCCCCCCCCC(=O)N[C@@H](C)C(=O)Nc1ccc(cc1)C(C)(C)/C=C\2C(C)(C)C [6b] | 39.7 µM |  |  |  |  | 
1.59 µM | 0.45 µM | 0.59 µM | Cc1oc2cc1C(=O)NCCCCCCCCCCCC(=O)Nc1ccc(cc1)C(C)(C)/C=C\2C(C)(C)C [6g] | > 250 µM | approximately ten times more potent | did not show obvious cytotoxicity | abrogate | abrogate | suppressed by 6g in a concentration-dependent manner
53.6 µM | > 250 µM | 12.8 µM | Cc1oc2cc1C(=O)NCCCCCCCCCCCC(=O)N[C@@H](Cc1ccccc1)C(=O)Nc1ccc(cc1)C(C)(C)/C=C\2C(C)(C)C [6a] | 152 µM |  |  |  |  | 
